Measured values taken from paper PMC12217463, “Functional and structural analyses of amino acid sequence variation in PDC β-lactamase reveal different mechanistic pathways toward cefiderocol resistance in Pseudomonas aeruginosa” (Antimicrobial Agents and Chemotherapy, 2025).
In brackets after ≈: the same amount, converted by molar mass.

Tests used:
PAO1 + blaPDC E219K = experiment: MIC, broth microdilution; type: cell-based; conditions: Pseudomonas aeruginosa
Source text: (§1) We took advantage of a previously constructed and characterized laboratory collection of recombinant P. aeruginosa PAO1 isolates expressing different blaPDC variants, but specifically enriched for this work with additional variants, following the previously described methodology ([17]). […] The final collection comprised 40 recombinant isolates (20 in PAO1 and 20 in PAO ΔpiuC) producing the wild-type PDC-1 variant from PAO1 and 19 derivatives carrying specific amino acid substitutions previously associated with the development of resistance to ceftazidime/avibactam, ceftolozane/tazobactam, or cefiderocol: T70I, F121L, P153L, G156D, A200T, G202S, ΔG202-E219, G214R, P215L, P215S, ΔP215-G222, D217N, E219K, E219G, E219D, S226ins, L293P, F121L + E219K, and F121L + G222S.
(§2) The MICs of ceftazidime, ceftazidime/avibactam, ceftolozane/tazobactam, cefepime, and cefiderocol were determined in triplicate, for all isolates, by reference broth microdilution assays. Avibactam and tazobactam were fixed at 4 mg/L. All assays were performed using cation-adjusted Mueller-Hinton broth (CAMHB), except for cefiderocol, which was determined in all cases using iron-depleted CAMHB, prepared according to CLSI M100 guidelines ([40]). EUCAST v.15.0 clinical breakpoints and guidelines (http://www.eucast.org/clinical_breakpoints/) were used for reference purposes. Reference strains Escherichia coli ATCC 25922, Klebsiella pneumoniae ATCC 700603, and P. aeruginosa ATCC 27853 were used as controls.

PAO1 + blaPDC ∆P215-G222 = experiment: MIC, broth microdilution; type: cell-based; conditions: Pseudomonas aeruginosa, avibactam and tazobactam fixed at 4 mg/L, FDC in iron-depleted CAMHB
Source text: as §1, §2

PAO1 + blaPDC G214R = experiment: MIC, broth microdilution; type: cell-based; conditions: Pseudomonas aeruginosa
Source text: as §1, §2

PAO1 + blaPDC P215S = experiment: MIC, broth microdilution; type: cell-based; conditions: Pseudomonas aeruginosa
Source text: as §1, §2

PAO1 + blaPDC-1 (WT) = experiment: MIC, broth microdilution; type: cell-based; conditions: Pseudomonas aeruginosa, avibactam and tazobactam fixed at 4 mg/L, FDC in iron-depleted CAMHB
Source text: as §1, §2

PAO1 + blaPDC L293P = experiment: MIC, broth microdilution; type: cell-based; conditions: Pseudomonas aeruginosa
Source text: as §1, §2

PAO1 + blaPDC E219G = experiment: MIC, broth microdilution; type: cell-based; conditions: Pseudomonas aeruginosa
Source text: as §1, §2

PAO1 + blaPDC E219D = experiment: MIC, broth microdilution; type: cell-based; conditions: Pseudomonas aeruginosa
Source text: as §1, §2

PAO1 + blaPDC F121L = experiment: MIC, broth microdilution; type: cell-based; conditions: Pseudomonas aeruginosa
Source text: as §1, §2

PAO1 + blaPDC S226ins = experiment: MIC, broth microdilution; type: cell-based; conditions: Pseudomonas aeruginosa, avibactam and tazobactam fixed at 4 mg/L, FDC in iron-depleted CAMHB
Source text: as §1, §2

PAO1 + blaPDC A200T = experiment: MIC, broth microdilution; type: cell-based; conditions: Pseudomonas aeruginosa
Source text: as §1, §2

PAO1 + blaPDC T70I = experiment: MIC, broth microdilution; type: cell-based; conditions: Pseudomonas aeruginosa
Source text: as §1, §2

PAO1 + blaPDC G156D = experiment: MIC, broth microdilution; type: cell-based; conditions: Pseudomonas aeruginosa
Source text: as §1, §2

PAO1 + blaPDC G202S = experiment: MIC, broth microdilution; type: cell-based; conditions: Pseudomonas aeruginosa
Source text: as §1, §2

PAO1 + blaPDC P153L = experiment: MIC, broth microdilution; type: cell-based; conditions: Pseudomonas aeruginosa
Source text: as §1, §2

PAO1 + blaPDC P215L = experiment: MIC, broth microdilution; type: cell-based; conditions: Pseudomonas aeruginosa
Source text: as §1, §2

PAO1 = experiment: MIC, broth microdilution; type: cell-based; conditions: Pseudomonas aeruginosa; PAO1 wild type, no plasmid-borne PDC; avibactam and tazobactam fixed at 4 mg/L; FDC in iron-depleted CAMHB
Source text: as §1, §2

[1] = system: PAO1 + blaPDC F121L + E219K; experiment: MIC, broth microdilution; type: cell-based; conditions: Pseudomonas aeruginosa
Source text: as §1, §2

PAO1 + blaPDC ∆G202-E219 = experiment: MIC, broth microdilution; type: cell-based; conditions: Pseudomonas aeruginosa, avibactam and tazobactam fixed at 4 mg/L, FDC in iron-depleted CAMHB
Source text: as §1, §2

PAO1 + blaPDC D217N = experiment: MIC, broth microdilution; type: cell-based; conditions: Pseudomonas aeruginosa
Source text: as §1, §2

[2] = system: PAO1 + blaPDC F121L + G220S; experiment: MIC, broth microdilution; type: cell-based; conditions: Pseudomonas aeruginosa
PDC E219K = PDC E219K (Pseudomonas aeruginosa, UniProt P24735, E247K); experiment: Steady-state kinetics of purified β-lactamase; conditions: for increase in kcat values: PDC E219K relative to PDC-1; for Km / kcat: PDC E219K, 10 mM PBS, pH 7.4, room temperature; for Km: antibiotics: determined as Ki app with nitrocefin as reporter substrate; for kcat: direct hydrolysis at substrate concentration at least three times the Km; for Ratio for PDC E219K/PDC-1: ratio of kcat/Km (fold change in catalytic efficiency)
PDC L293P = PDC L293P (Pseudomonas aeruginosa, UniProt P24735, L320P); experiment: Steady-state kinetics of purified β-lactamase; conditions: for Km / kcat: PDC L293P, 10 mM PBS, pH 7.4, room temperature; for Km: antibiotics: determined as Ki app with nitrocefin as reporter substrate; for kcat: direct hydrolysis at substrate concentration at least three times the Km; for Ratio for PDC L293P/PDC-1: ratio of kcat/Km (fold change in catalytic efficiency)
PDC-1 (WT) = PDC-1 (WT) (Pseudomonas aeruginosa, UniProt P24735); experiment: Steady-state kinetics of purified β-lactamase; conditions: for kcat: PDC-1 (WT), direct hydrolysis at substrate concentration at least three times the Km, 10 mM PBS, pH 7.4, room temperature; for Ratio: kcat/Km relative to PDC-1 (reference = 1)

Compound `CC(C)(O/N=C(\C(=O)N[C@@H]1C(=O)N2C(C(=O)[O-])=C(C[n+]3ccccc3)CS[C@H]12)c1csc(N)n1)C(=O)O` [CAZ, ceftazidime] has an MIC (PAO1 + blaPDC E219K) of 256 mg/L (≈ 468 µM), an MIC (PAO1 + blaPDC ∆P215-G222) of 256 mg/L and an MIC (PAO1 + blaPDC G214R) of 128 mg/L (≈ 234 µM). For the same compound, the MIC (PAO1 + blaPDC P215S) was 64 mg/L (≈ 117 µM), the MIC (PAO1 + blaPDC-1 (WT)) was 32 mg/L and the MIC (PAO1 + blaPDC L293P) was 64 mg/L (≈ 117 µM). The MIC (PAO1 + blaPDC E219G) was 16 mg/L (≈ 29.3 µM), the MIC (PAO1 + blaPDC E219D) was 64 mg/L (≈ 117 µM) and the MIC (PAO1 + blaPDC F121L) was 64 mg/L (≈ 117 µM). It also gave an MIC (PAO1 + blaPDC S226ins) of 128 mg/L, an MIC (PAO1 + blaPDC A200T) of 64 mg/L (≈ 117 µM) and an MIC (PAO1 + blaPDC T70I) of 64 mg/L (≈ 117 µM). The MIC (PAO1 + blaPDC G156D) was 64 mg/L (≈ 117 µM), the MIC (PAO1 + blaPDC G202S) was 64 mg/L (≈ 117 µM) and the MIC (PAO1 + blaPDC P153L) was 128 mg/L (≈ 234 µM). The MIC (PAO1 + blaPDC P215L) was 64 mg/L (≈ 117 µM), the MIC (PAO1) was no more than 1 mg/L and the MIC [1] was greater than 256 mg/L. The MIC (PAO1 + blaPDC ∆G202-E219) was 64 mg/L, the MIC (PAO1 + blaPDC D217N) was 64 mg/L (≈ 117 µM) and the MIC [2] was 64 mg/L (≈ 117 µM). For the same compound, the “increase in kcat values” (PDC E219K) was “≈ 267 fold”, the Km (PDC E219K) was 292 ± 27.5 µM and the kcat (PDC E219K; listed as Ceftazidime) was 2.19 ± 0.17 s⁻¹. For the same compound, the kcat (PDC E219K; listed as ceftazidime) was 2.19 s⁻¹, the “Ratio for PDC E219K/PDC-1” value (PDC E219K; listed as Ceftazidime) was 15.56 and the “Ratio for PDC E219K/PDC-1” value (PDC E219K; listed as ceftazidime) was “≈ 16”. The Km (PDC L293P) was 2.84 ± 0.31 µM, the kcat (PDC L293P) was 0.0110 ± 0.0003 s⁻¹ and the “Ratio for PDC L293P/PDC-1” value (PDC L293P) was 8.67. For the same compound, the kcat (PDC-1 (WT)) was 0.0082 s⁻¹ and the Ratio (PDC-1 (WT)) was 1.

In the case of `Cn1c(N)c(NC(=O)NCCN)c[n+]1CC1=C(C(=O)O)N2C(=O)[C@@H](NC(=O)/C(=N\OC(C)(C)C(=O)[O-])c3nsc(N)n3)[C@H]2SC1` [Ceftolozane, ceftolozane], the “increase in kcat values” (PDC E219K) is reported as “≈ 58 fold”, the Km (PDC E219K) is reported as 266 ± 43.5 µM and the kcat (PDC E219K) is reported as 4.18 ± 0.19 s⁻¹. The kcat (PDC E219K; listed as ceftolozane) was 4.18 s⁻¹, the “Ratio for PDC E219K/PDC-1” value (PDC E219K) was 123.08 and the “Ratio for PDC E219K/PDC-1” value (PDC E219K; listed as ceftolozane) was “≈ 123”. For the same compound, the Km (PDC L293P) was 108 ± 28.8 µM, the kcat (PDC L293P) was 0.051 ± 0.007 s⁻¹ and the “Ratio for PDC L293P/PDC-1” value (PDC L293P) was 3.69. The kcat (PDC-1 (WT)) was 0.0715 s⁻¹ and the Ratio (PDC-1 (WT)) was 1.
